In PubChem BioAssay (NCI):
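Method: 48-hour compound exposure of cells in 96-well plates, five concentrations, linear interpolation of endpoints. At the GI50, growth is halved. TGI: total growth inhibition.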

Assays:
Assay in all cases: NCI anticancer screen, dose series, 48 h
HT29 colon = test system: HT29 colon
MCF7 breast = test system: MCF7 breast
ACHN renal = test system: ACHN renal
A498 renal = test system: A498 renal
MOLT-4 leukemia = test system: MOLT-4 leukemia
HCT-15 colon = test system: HCT-15 colon
COLO 205 colon = test system: COLO 205 colon
SNB-19 CNS = test system: SNB-19 CNS
SK-MEL-5 melanoma = test system: SK-MEL-5 melanoma
HCC-2998 colon = test system: HCC-2998 colon
SK-OV-3 ovarian = test system: SK-OV-3 ovarian
U251 CNS = test system: U251 CNS
HL-60(TB) leukemia = test system: HL-60(TB) leukemia
OVCAR-4 ovarian = test system: OVCAR-4 ovarian
KM12 colon = test system: KM12 colon
NCI-H460 lung = test system: NCI-H460 lung
A549 NSCLC = test system: A549 NSCLC
UACC-257 melanoma = test system: UACC-257 melanoma
BT-549 breast = test system: BT-549 breast
786-0 renal = test system: 786-0 renal
SR leukemia = test system: SR leukemia
OVCAR-8 ovarian = test system: OVCAR-8 ovarian
EKVX NSCLC = test system: EKVX NSCLC
OVCAR-5 ovarian = test system: OVCAR-5 ovarian
SK-MEL-28 melanoma = test system: SK-MEL-28 melanoma
SN12C renal = test system: SN12C renal
UACC-62 melanoma = test system: UACC-62 melanoma
MDA-MB-231 breast = test system: MDA-MB-231 breast
NCI-H226 lung = test system: NCI-H226 lung
SF-268 CNS = test system: SF-268 CNS
T-47D breast = test system: T-47D breast
NCI/ADR-RES ovarian = test system: NCI/ADR-RES ovarian
LOX IMVI melanoma = test system: LOX IMVI melanoma
SK-MEL-2 melanoma = test system: SK-MEL-2 melanoma
DU-145 prostate = test system: DU-145 prostate
HS 578T breast = test system: HS 578T breast
K-562 leukemia = test system: K-562 leukemia
TK-10 renal = test system: TK-10 renal
HOP-62 NSCLC = test system: HOP-62 NSCLC
RPMI-8226 leukemia = test system: RPMI-8226 leukemia
MALME-3M melanoma = test system: MALME-3M melanoma
SW-620 colon = test system: SW-620 colon
UO-31 renal = test system: UO-31 renal
OVCAR-3 ovarian = test system: OVCAR-3 ovarian
RXF 393 renal = test system: RXF 393 renal
PC-3 prostate = test system: PC-3 prostate
IGROV1 ovarian = test system: IGROV1 ovarian
SNB-75 CNS = test system: SNB-75 CNS
NCI-H522 lung = test system: NCI-H522 lung
SF-539 CNS = test system: SF-539 CNS
MDA-MB-435 = test system: MDA-MB-435
M14 melanoma = test system: M14 melanoma
HCT-116 colon = test system: HCT-116 colon
SF-295 CNS = test system: SF-295 CNS
HOP-92 NSCLC = test system: HOP-92 NSCLC
NCI-H23 lung = test system: NCI-H23 lung
CCRF-CEM leukemia = test system: CCRF-CEM leukemia
CAKI-1 renal = test system: CAKI-1 renal

Q: Which results are given for `CCCCON(OC(=O)c1ccc2ccccc2c1)C(=O)c1ccccc1`?
A: GI50 (HT29 colon): > 100 µM; TGI (HT29 colon): > 100 µM; GI50 (MCF7 breast): 60.1 µM; TGI (MCF7 breast): > 100 µM; GI50 (ACHN renal): > 100 µM; TGI (ACHN renal): > 100 µM; GI50 (A498 renal): > 100 µM; TGI (A498 renal): > 100 µM; GI50 (MOLT-4 leukemia): 29.2 µM; TGI (MOLT-4 leukemia): 68.4 µM; GI50 (HCT-15 colon): > 100 µM; TGI (HCT-15 colon): > 100 µM; GI50 (COLO 205 colon): > 100 µM; TGI (COLO 205 colon): > 100 µM; GI50 (SNB-19 CNS): > 100 µM; TGI (SNB-19 CNS): > 100 µM; GI50 (SK-MEL-5 melanoma): > 100 µM; TGI (SK-MEL-5 melanoma): > 100 µM; GI50 (HCC-2998 colon): > 100 µM; TGI (HCC-2998 colon): > 100 µM; GI50 (SK-OV-3 ovarian): > 100 µM; TGI (SK-OV-3 ovarian): > 100 µM; GI50 (U251 CNS): > 100 µM; TGI (U251 CNS): > 100 µM; GI50 (HL-60(TB) leukemia): 91 µM; TGI (HL-60(TB) leukemia): > 100 µM; GI50 (OVCAR-4 ovarian): > 100 µM; TGI (OVCAR-4 ovarian): > 100 µM; GI50 (KM12 colon): > 100 µM; TGI (KM12 colon): > 100 µM; GI50 (NCI-H460 lung): > 100 µM; TGI (NCI-H460 lung): > 100 µM; GI50 (A549 NSCLC): > 100 µM; TGI (A549 NSCLC): > 100 µM; GI50 (UACC-257 melanoma): > 100 µM; TGI (UACC-257 melanoma): > 100 µM; GI50 (BT-549 breast): 92.3 µM; TGI (BT-549 breast): > 100 µM; GI50 (786-0 renal): 73.4 µM; TGI (786-0 renal): > 100 µM; GI50 (SR leukemia): 31.5 µM; TGI (SR leukemia): 77.1 µM; GI50 (OVCAR-8 ovarian): > 100 µM; TGI (OVCAR-8 ovarian): > 100 µM; GI50 (EKVX NSCLC): > 100 µM; TGI (EKVX NSCLC): > 100 µM; GI50 (OVCAR-5 ovarian): > 100 µM; TGI (OVCAR-5 ovarian): > 100 µM; GI50 (SK-MEL-28 melanoma): > 100 µM; TGI (SK-MEL-28 melanoma): > 100 µM; GI50 (SN12C renal): > 100 µM; TGI (SN12C renal): > 100 µM; GI50 (UACC-62 melanoma): > 100 µM; TGI (UACC-62 melanoma): > 100 µM; GI50 (MDA-MB-231 breast): > 100 µM; TGI (MDA-MB-231 breast): > 100 µM; GI50 (NCI-H226 lung): 74 µM; TGI (NCI-H226 lung): > 100 µM; GI50 (SF-268 CNS): > 100 µM; TGI (SF-268 CNS): > 100 µM; GI50 (T-47D breast): > 100 µM; TGI (T-47D breast): > 100 µM; GI50 (NCI/ADR-RES ovarian): > 100 µM; TGI (NCI/ADR-RES ovarian): > 100 µM; GI50 (LOX IMVI melanoma): 25.3 µM; TGI (LOX IMVI melanoma): 72 µM; GI50 (SK-MEL-2 melanoma): > 100 µM; TGI (SK-MEL-2 melanoma): > 100 µM; GI50 (DU-145 prostate): > 100 µM; TGI (DU-145 prostate): > 100 µM; GI50 (HS 578T breast): > 100 µM; TGI (HS 578T breast): > 100 µM; GI50 (K-562 leukemia): 41.7 µM; TGI (K-562 leukemia): > 100 µM; GI50 (TK-10 renal): > 100 µM; TGI (TK-10 renal): > 100 µM; GI50 (HOP-62 NSCLC): > 100 µM; TGI (HOP-62 NSCLC): > 100 µM; GI50 (RPMI-8226 leukemia): 74.2 µM; TGI (RPMI-8226 leukemia): > 100 µM; GI50 (MALME-3M melanoma): > 100 µM; TGI (MALME-3M melanoma): > 100 µM; GI50 (SW-620 colon): 36.3 µM; TGI (SW-620 colon): > 100 µM; GI50 (UO-31 renal): 53.1 µM; TGI (UO-31 renal): > 100 µM; GI50 (OVCAR-3 ovarian): > 100 µM; TGI (OVCAR-3 ovarian): > 100 µM; GI50 (RXF 393 renal): > 100 µM; TGI (RXF 393 renal): > 100 µM; GI50 (PC-3 prostate): > 100 µM; TGI (PC-3 prostate): > 100 µM; GI50 (IGROV1 ovarian): 44.1 µM; TGI (IGROV1 ovarian): > 100 µM; GI50 (SNB-75 CNS): 86.2 µM; TGI (SNB-75 CNS): > 100 µM; GI50 (NCI-H522 lung): 63 µM; TGI (NCI-H522 lung): > 100 µM; GI50 (SF-539 CNS): > 100 µM; TGI (SF-539 CNS): > 100 µM; GI50 (MDA-MB-435): > 100 µM; TGI (MDA-MB-435): > 100 µM; GI50 (M14 melanoma): > 100 µM; TGI (M14 melanoma): > 100 µM; GI50 (HCT-116 colon): 34.8 µM; TGI (HCT-116 colon): > 100 µM; GI50 (SF-295 CNS): > 100 µM; TGI (SF-295 CNS): > 100 µM; GI50 (HOP-92 NSCLC): 44.8 µM; TGI (HOP-92 NSCLC): > 100 µM; GI50 (NCI-H23 lung): 90.2 µM; TGI (NCI-H23 lung): > 100 µM; GI50 (CCRF-CEM leukemia): 21.4 µM; TGI (CCRF-CEM leukemia): 57.3 µM; GI50 (CAKI-1 renal): > 100 µM; TGI (CAKI-1 renal): > 100 µM
